Experiment: Stability of the R,R′-atracurium salts in a closed vial at room temperature, monitored by HPLC
Format: physicochemical
Details: solid salt; for % content of the 1R-cis,1′R-cis isomer in the sample, After 19 days / % content of the 1R-cis,1′R-cis isomer in the sample, After 34 days / % content of the 1R-cis,1′R-cis isomer in the sample, After 47 days: HPLC; for % content of the 1R-cis,1′R-cis isomer in the sample, Reference sample (t0): t0, HPLC
Text: 1 g of the R,R′-atracurium salt was placed in a closed vial, which was left aside at room temperature. From time to time the vial was opened and a sample was withdrawn and monitored by HPLC. The results are summarized in Table 3 and expressed as % content of the 1R-cis,1′R-cis isomer in the sample as function of the elapsed time, as measured by HPLC.

Compound | % content of the 1R-cis,1′R-cis isomer in the sample, After 19 days [%] | % content of the 1R-cis,1′R-cis isomer in the sample, After 34 days [%] | % content of the 1R-cis,1′R-cis isomer in the sample, After 47 days [%] | % content of the 1R-cis,1′R-cis isomer in the sample, Reference sample (t0) [%]
COc1ccc(C[C@@H]2c3cc(OC)c(OC)cc3CC[N+]2(C)CCC(=O)OCCCCCOC(=O)CC[N+]2(C)CCc3cc(OC)c(OC)cc3[C@H]2Cc2ccc(OC)c(OC)c2)cc1OC.O=S(=O)([O-])c1ccccc1.O=S(=O)([O-])c1ccccc1 (stereo partly drawn) [besylate, R,R′-atracurium besylate, reference compound] | 80.5 | 15.1 | 7.9 | 97.2
R,R′-atracurium perchlorate | 92.1 | 92.7 | 92.3 | 98
R,R′-atracurium tetrafluoroborate | 88.8 | 85.3 | 82.6 | 98.2

From patent publication US8354537B2, “R,R1-atracurium salts” (CHEMAGIS Ltd., priority 2007, dated 2013)
